In assay [1] the target is T1, HiBiT-BRM fusion protein in stable HeLa cell line (Homo sapiens, UniProt P51531).
T1 construct: expressed in transfected cells
Nature of the assay: HiBiT-BRM cell-based degradation assay (Nano-Glo HiBiT Lytic Detection, 24 h). The note with it: HeLa HiBiT-BRM cells; for DC50: read-out: BRM HiBit Degradation IC50; for BRM HiBit Degradation Maximum (%): top dose 30 μM. Details: DC50: scale not given here. The method, boiled down:
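Stable HiBiT-BRM HeLa cells were treated with 10-point 3-fold serial dilutions (30 μM final top dose, duplicate) for 24 h, then lysed with LgBiT-containing detection reagent and luminescence read. Degradation % was normalised to DMSO (high control) and 2 μM reference BRM/BRG1 degrader (low control).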
(In general: With HiBiT, luminescence reflects the tagged protein that the partner subunit can reach.)

For assay [2], the target named is T2, HiBit-BRG1 fusion protein in stable HeLa cell line expressing HiBit-BRG1 and LgBit (Homo sapiens, UniProt P51532).
T2 construct: expressed in transfected cells
T2 sequence (P51532 whole entry, the tested form may be a part): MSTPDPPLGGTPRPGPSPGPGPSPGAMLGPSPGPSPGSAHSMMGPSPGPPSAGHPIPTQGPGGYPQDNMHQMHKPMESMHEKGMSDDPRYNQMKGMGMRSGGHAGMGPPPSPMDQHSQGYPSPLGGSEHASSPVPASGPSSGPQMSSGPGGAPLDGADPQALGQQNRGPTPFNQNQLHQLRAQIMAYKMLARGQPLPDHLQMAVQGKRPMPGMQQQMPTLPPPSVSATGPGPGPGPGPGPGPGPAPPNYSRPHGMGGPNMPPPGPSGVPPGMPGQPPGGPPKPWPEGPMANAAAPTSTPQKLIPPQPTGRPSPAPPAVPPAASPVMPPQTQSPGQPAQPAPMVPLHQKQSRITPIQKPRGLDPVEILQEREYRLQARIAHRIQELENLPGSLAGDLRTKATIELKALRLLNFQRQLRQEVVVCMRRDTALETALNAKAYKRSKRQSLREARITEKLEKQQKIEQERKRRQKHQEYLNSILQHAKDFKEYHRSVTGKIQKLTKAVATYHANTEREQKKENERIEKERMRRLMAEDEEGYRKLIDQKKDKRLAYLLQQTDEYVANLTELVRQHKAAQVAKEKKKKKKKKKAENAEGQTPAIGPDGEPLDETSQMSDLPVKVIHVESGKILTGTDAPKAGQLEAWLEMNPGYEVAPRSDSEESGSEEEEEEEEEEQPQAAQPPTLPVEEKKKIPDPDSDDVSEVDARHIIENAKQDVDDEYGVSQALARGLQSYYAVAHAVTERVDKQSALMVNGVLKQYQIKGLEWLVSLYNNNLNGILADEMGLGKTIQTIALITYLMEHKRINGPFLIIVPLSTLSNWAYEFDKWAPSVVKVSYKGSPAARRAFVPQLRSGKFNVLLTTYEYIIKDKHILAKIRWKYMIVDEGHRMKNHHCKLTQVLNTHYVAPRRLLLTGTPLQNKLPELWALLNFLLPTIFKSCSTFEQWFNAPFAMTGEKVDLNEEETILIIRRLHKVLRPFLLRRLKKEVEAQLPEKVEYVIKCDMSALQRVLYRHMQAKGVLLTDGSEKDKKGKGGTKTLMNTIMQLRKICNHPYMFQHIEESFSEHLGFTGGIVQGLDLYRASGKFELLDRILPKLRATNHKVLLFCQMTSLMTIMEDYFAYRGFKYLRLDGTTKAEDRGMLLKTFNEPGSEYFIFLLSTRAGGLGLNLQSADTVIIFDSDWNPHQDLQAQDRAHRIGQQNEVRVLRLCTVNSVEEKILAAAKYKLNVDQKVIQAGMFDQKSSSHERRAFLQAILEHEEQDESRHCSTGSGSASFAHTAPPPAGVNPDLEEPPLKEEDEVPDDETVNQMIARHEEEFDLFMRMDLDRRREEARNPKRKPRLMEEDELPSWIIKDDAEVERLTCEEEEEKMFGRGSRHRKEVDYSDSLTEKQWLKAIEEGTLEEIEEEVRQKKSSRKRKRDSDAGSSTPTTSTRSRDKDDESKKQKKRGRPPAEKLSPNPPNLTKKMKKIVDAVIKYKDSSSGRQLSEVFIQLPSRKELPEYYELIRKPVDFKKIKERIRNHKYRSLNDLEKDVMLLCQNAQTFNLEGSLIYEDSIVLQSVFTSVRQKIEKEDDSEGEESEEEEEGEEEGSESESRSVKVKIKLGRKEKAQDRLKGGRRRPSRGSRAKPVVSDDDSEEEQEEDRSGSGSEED
Description: HiBiT-BRG1 cell-based degradation assay (Nano-Glo HiBiT, 24 h). The conditions noted are these: HeLa HiBit-BRG1/LgBit cells; for DC50: read-out: BRMG1 HiBit Degradation IC50; for Dmax: top dose 30 μM, read-out: BRG1 HiBit Degradation Maximum (%). The method, boiled down: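 Stable HeLa line co-expressing HiBiT-BRG1 and LgBiT, compound-treated 24 h; luminescence read after Nano-Glo HiBiT lytic reagent. % degradation normalised between DMSO (high control) and 2 μM reference BRM/BRG1 degrader (low control).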

T1 sequence (P51531 whole entry, the tested form may be a part): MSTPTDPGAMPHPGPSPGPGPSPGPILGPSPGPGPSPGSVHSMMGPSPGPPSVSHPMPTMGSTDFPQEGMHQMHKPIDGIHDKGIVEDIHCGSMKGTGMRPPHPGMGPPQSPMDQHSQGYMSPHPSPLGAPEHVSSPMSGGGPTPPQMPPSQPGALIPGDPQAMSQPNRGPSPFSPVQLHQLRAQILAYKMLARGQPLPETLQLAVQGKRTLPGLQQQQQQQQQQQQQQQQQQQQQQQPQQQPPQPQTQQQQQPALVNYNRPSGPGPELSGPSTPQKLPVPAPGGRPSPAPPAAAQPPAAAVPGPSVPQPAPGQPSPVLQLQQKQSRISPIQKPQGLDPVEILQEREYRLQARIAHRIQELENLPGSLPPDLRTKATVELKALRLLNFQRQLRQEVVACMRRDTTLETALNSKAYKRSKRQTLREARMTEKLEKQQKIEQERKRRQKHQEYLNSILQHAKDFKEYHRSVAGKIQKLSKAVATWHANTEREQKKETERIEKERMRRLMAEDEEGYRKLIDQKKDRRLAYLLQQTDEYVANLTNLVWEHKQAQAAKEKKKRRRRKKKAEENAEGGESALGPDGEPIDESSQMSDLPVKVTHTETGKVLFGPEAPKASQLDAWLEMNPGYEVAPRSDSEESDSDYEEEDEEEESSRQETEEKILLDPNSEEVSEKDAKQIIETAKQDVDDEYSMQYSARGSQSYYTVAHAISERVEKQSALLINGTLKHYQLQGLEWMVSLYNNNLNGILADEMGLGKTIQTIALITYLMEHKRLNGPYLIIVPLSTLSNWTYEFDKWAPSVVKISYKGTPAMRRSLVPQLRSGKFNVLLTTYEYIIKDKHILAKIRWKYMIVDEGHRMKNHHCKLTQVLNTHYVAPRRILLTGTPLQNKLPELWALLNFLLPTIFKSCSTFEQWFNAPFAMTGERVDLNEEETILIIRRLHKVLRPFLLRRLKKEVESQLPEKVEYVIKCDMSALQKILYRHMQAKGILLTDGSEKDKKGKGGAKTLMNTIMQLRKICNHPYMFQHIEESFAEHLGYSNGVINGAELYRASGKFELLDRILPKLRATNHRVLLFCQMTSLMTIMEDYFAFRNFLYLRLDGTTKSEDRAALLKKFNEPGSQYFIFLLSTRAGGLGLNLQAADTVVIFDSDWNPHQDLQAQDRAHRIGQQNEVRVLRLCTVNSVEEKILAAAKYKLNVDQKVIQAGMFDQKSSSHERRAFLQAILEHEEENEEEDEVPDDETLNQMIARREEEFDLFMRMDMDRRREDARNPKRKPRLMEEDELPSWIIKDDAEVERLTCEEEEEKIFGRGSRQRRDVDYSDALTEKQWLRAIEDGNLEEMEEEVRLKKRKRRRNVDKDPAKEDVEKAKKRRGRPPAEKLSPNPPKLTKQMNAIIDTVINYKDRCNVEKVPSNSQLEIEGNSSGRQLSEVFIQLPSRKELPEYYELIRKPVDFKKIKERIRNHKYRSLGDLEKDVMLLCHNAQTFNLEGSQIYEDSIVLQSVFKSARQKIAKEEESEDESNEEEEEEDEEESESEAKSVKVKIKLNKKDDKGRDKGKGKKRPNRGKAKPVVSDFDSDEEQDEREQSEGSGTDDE

Turning to `Cc1ncsc1-c1ccc([C@H](C)NC(=O)[C@@H]2C[C@@H](O)CN2C(=O)[C@@H](c2cc(N3CCN([C@@H]4CCN(c5ccc6nnc(-c7ccccc7O)cc6c5)CC4(F)F)CC3)no2)C(C)C)cc1` [Compound 124, (2S,4R)-1-((R)-2-(3-(4-((R)-3,3-difluoro-1-(3-(2-hydroxyphenyl)cinnolin-6-yl)piperidin-4-yl)piperazin-1-yl)isoxazol-5-yl)-3-methylbutanoyl)-4-hydroxy-N-((S)-1-(4-(4-methylthiazol-5-yl)phenyl)ethyl)pyrrolidine-2-carboxamide], in assay [1], the DC50 is less than 0.01 µM and the “BRM HiBit Degradation Maximum (%)” value was “A (“A” indicates maximum degradation ≥75%)”. In assay [2], the DC50 is less than 0.01 µM and the Dmax is more than 75%.
Take `C#Cc1ccc([C@H](C)NC(=O)[C@@H]2C[C@@H](O)CN2C(=O)[C@H](C(C)C)n2cc(N3CC4(CN(c5ccc6cc(-c7ccccc7O)nnc6c5)C4)C3)nn2)cc1` [Compound 254, (2S,4R)-N-((S)-1-(4-ethynylphenyl)ethyl)-4-hydroxy-1-((S)-2-(4-(6-(3-(2-hydroxyphenyl)cinnolin-7-yl)-2,6-diazaspiro[3.3]heptan-2-yl)-1H-1,2,3-triazol-1-yl)-3-methylbutanoyl)pyrrolidine-2-carboxamide]: in assay [1], the DC50 is less than 0.01 µM and the “BRM HiBit Degradation Maximum (%)” value is given as “A (“A” indicates maximum degradation ≥75%)”. Besides, the Dmax in assay [2] is less than 50%.
Consider `Cc1cc2nnc(-c3ccccc3O)cc2cc1-c1cc([C@H](C(=O)N2C[C@H](O)C[C@H]2C(=O)N[C@@H](C)c2ccc(-c3scnc3C)cc2)C(C)C)on1` [Compound 149, (2S,4R)-4-hydroxy-1-((R)-2-(3-(3-(2-hydroxyphenyl)-7-methylcinnolin-6-yl)isoxazol-5-yl)-3-methylbutanoyl)-N-((S)-1-(4-(4-methylthiazol-5-yl)phenyl)ethyl)pyrrolidine-2-carboxamide], for which, in assay [1], the DC50 was less than 0.01 µM and the “BRM HiBit Degradation Maximum (%)” value was “A (“A” indicates maximum degradation ≥75%)”. Further, in assay [2], the DC50 is more than 0.01 µM and the Dmax was more than 50%.
The corresponding values for `Cc1ncsc1-c1ccc([C@H](C)NC(=O)[C@@H]2C[C@@H](O)CN2C(=O)[C@@H](c2cc(N3CC[C@@]4(CCN(c5ccc6cc(-c7ccccc7O)nnc6c5)C4)C3)no2)C(C)C)cc1` [Compound 99, (2S,4R)-4-hydroxy-1-((R)-2-(3-((R)-7-(3-(2-hydroxyphenyl)cinnolin-7-yl)-2,7-diazaspiro[4.4]nonan-2-yl)isoxazol-5-yl)-3-methylbutanoyl)-N-((S)-1-(4-(4-methylthiazol-5-yl)phenyl)ethyl)pyrrolidine-2-carboxamide] are less than 0.01 µM, “A (“A” indicates maximum degradation ≥75%)”, less than 0.01 µM and more than 75%.
With `Cc1ncsc1-c1ccc([C@H](C)NC(=O)[C@@H]2C[C@@H](O)CN2C(=O)[C@@H](c2cc(N3CC4(CN(c5ccc6cc(-c7cccc(F)c7O)nnc6c5)C4)C3)no2)C(C)C)cc1` [Compound 246, (2S,4R)-1-((R)-2-(3-(6-(3-(3-fluoro-2-hydroxyphenyl)cinnolin-7-yl)-2,6-diazaspiro[3.3]heptan-2-yl)isoxazol-5-yl)-3-methylbutanoyl)-4-hydroxy-N-((S)-1-(4-(4-methylthiazol-5-yl)phenyl)ethyl)pyrrolidine-2-carboxamide], in assay [1], the DC50 is less than 0.01 µM and the “BRM HiBit Degradation Maximum (%)” value is “A (“A” indicates maximum degradation ≥75%)”. The Dmax in assay [2] is less than 50%.
The corresponding values for `Cc1ncsc1-c1ccc([C@H](C)NC(=O)[C@@H]2C[C@@H](O)CN2C(=O)[C@H](C(C)C)n2cnc(N3CC4(CN(c5ccc6cc(-c7ccccc7O)nnc6c5)C4)C3)c2)cc1` [Compound 271, (2S,4R)-4-hydroxy-1-((S)-2-(4-(6-(3-(2-hydroxyphenyl)cinnolin-7-yl)-2,6-diazaspiro[3.3]heptan-2-yl)-1H-imidazol-1-yl)-3-methylbutanoyl)-N-((S)-1-(4-(4-methylthiazol-5-yl)phenyl)ethyl)pyrrolidine-2-carboxamide] are more than 0.01 µM, “A (“A” indicates maximum degradation ≥75%)” and less than 50%.
The corresponding values for `Cc1ncsc1-c1ccc([C@H](C)NC(=O)[C@@H]2C[C@@H](O)CN2C(=O)[C@@H](c2cc(N3CCC4(CC3)CC(Oc3ccc5cc(-c6ccccc6O)nnc5c3)C4)no2)C(C)C)cc1` [Compound 78, (2S,4R)-4-hydroxy-1-((R)-2-(3-(2-((3-(2-hydroxyphenyl)cinnolin-7-yl)oxy)-7-azaspiro[3.5]nonan-7-yl)isoxazol-5-yl)-3-methylbutanoyl)-N-((S)-1-(4-(4-methylthiazol-5-yl)phenyl)ethyl)pyrrolidine-2-carboxamide] are more than 0.01 µM, “A (“A” indicates maximum degradation ≥75%)” and less than 50%.
The corresponding values for `C#Cc1cc(N2CC3(C2)CN(c2cc([C@H](C(=O)N4C[C@H](O)C[C@H]4C(=O)N[C@@H](C)c4ccc(-c5scnc5C)cc4)C(C)C)on2)C3)cc2nnc(-c3ccccc3O)cc12` [Compound 240, (2S,4R)-1-((R)-2-(3-(6-(5-ethynyl-3-(2-hydroxyphenyl)cinnolin-7-yl)-2,6-diazaspiro[3.3]heptan-2-yl)isoxazol-5-yl)-3-methylbutanoyl)-4-hydroxy-N-((S)-1-(4-(4-methylthiazol-5-yl)phenyl)ethyl)pyrrolidine-2-carboxamide] are less than 0.01 µM, “A (“A” indicates maximum degradation ≥75%)” and less than 50%.
For `Cc1ncsc1-c1ccc([C@H](C)NC(=O)[C@@H]2C[C@@H](O)CN2C(=O)C(C(C)C)n2cc(N3CCN(CN4CCN(c5ccc6nnc(-c7ccccc7O)cc6c5)CC4)CC3)nn2)cc1` (some centres unmarked) [Compound 282], in assay [1], the DC50 is less than 0.01 µM and the “BRM HiBit Degradation Maximum (%)” value is recorded as “A (“A” indicates maximum degradation ≥75%)”. Also, in assay [2], the DC50 is less than 0.01 µM and the Dmax is more than 75%.
Take `COC[C@H]1CN(c2cc([C@H](C(=O)N3C[C@H](O)C[C@H]3C(=O)N[C@@H](C)c3ccc(-c4scnc4C)cc3)C(C)C)on2)CCN1c1ccc2nnc(-c3ccccc3O)cc2c1` [Compound 138, (2S,4R)-4-hydroxy-1-((R)-2-(3-((R)-4-(3-(2-hydroxyphenyl)cinnolin-6-yl)-3-(methoxymethyl)piperazin-1-yl)isoxazol-5-yl)-3-methylbutanoyl)-N-((S)-1-(4-(4-methylthiazol-5-yl)phenyl)ethyl)pyrrolidine-2-carboxamide]: in assay [1], the DC50 was less than 0.01 µM and the “BRM HiBit Degradation Maximum (%)” value is “A (“A” indicates maximum degradation ≥75%)”. For the same compound, in assay [2], the DC50 was more than 0.01 µM and the Dmax was more than 75%.
Take `Cc1ncsc1-c1ccc([C@H](C)NC(=O)[C@@H]2C[C@@H](O)CN2C(=O)[C@@H](c2cc(N3CCC(N4CC(c5ccc6cc(-c7ccccc7O)nnc6c5)C4)CC3)no2)C(C)C)cc1` [Compound 10, (2S,4R)-4-hydroxy-1-((R)-2-(3-(4-(3-(3-(2-hydroxyphenyl)cinnolin-7-yl)azetidin-1-yl)piperidin-1-yl)isoxazol-5-yl)-3-methylbutanoyl)-N-((S)-1-(4-(4-methylthiazol-5-yl)phenyl)ethyl)pyrrolidine-2-carboxamide]: in assay [1], the DC50 is more than 0.01 µM and the “BRM HiBit Degradation Maximum (%)” value is “A (“A” indicates maximum degradation ≥75%)”. In addition, the Dmax in assay [2] is less than 50%.
Turning to `Cc1ncsc1-c1ccc([C@H](C)NC(=O)[C@@H]2C[C@@H](O)CN2C(=O)C(C(C)C)n2cc(N3CCN(CC4CCN(c5ccc6nnc(-c7ccccc7O)cc6c5)CC4)CC3)nn2)cc1` (some centres unmarked) [Compound 281], in assay [1], the DC50 is less than 0.01 µM and the “BRM HiBit Degradation Maximum (%)” value is on record as “A (“A” indicates maximum degradation ≥75%)”. For the same compound, in assay [2], the DC50 was less than 0.01 µM and the Dmax was more than 75%.
As for `Cc1ncsc1-c1ccc([C@H](C)NC(=O)[C@@H]2C[C@@H](O)CN2C(=O)C(C(C)C)n2cc(N3CCC4C(C3)CN4c3ccc4cc(-c5ccccc5O)nnc4c3)nn2)cc1` (stereo partly drawn) [Compound 263, (2S,4R)-4-hydroxy-1-(2-(4-(7-(3-(2-hydroxyphenyl)cinnolin-7-yl)-3,7-diazabicyclo[4.2.0]octan-3-yl)-1H-1,2,3-triazol-1-yl)-3-methylbutanoyl)-N-((S)-1-(4-(4-methylthiazol-5-yl)phenyl)ethyl)pyrrolidine-2-carboxamide], in assay [1], the DC50 was more than 0.01 µM and the “BRM HiBit Degradation Maximum (%)” value is listed as “A (“A” indicates maximum degradation ≥75%)”. Further, in assay [2], the DC50 is more than 0.01 µM and the Dmax is more than 75%.
Consider `Cc1ncsc1-c1ccc([C@H](C)NC(=O)[C@@H]2C[C@@H](O)CN2C(=O)[C@H](C2CCC2)n2cc(N3CC4(CC(c5ccc6cc(-c7ccccc7O)nnc6c5)C4)C3)nn2)cc1` [Compound 193, (2S,4R)-1-((S)-2-cyclobutyl-2-(4-(6-(3-(2-hydroxyphenyl)cinnolin-7-yl)-2-azaspiro[3.3]heptan-2-yl)-1H-1,2,3-triazol-1-yl)acetyl)-4-hydroxy-N-((S)-1-(4-(4-methylthiazol-5-yl)phenyl)ethyl)pyrrolidine-2-carboxamide], for which, in assay [1], the DC50 was less than 0.01 µM and the “BRM HiBit Degradation Maximum (%)” value is reported as “A (“A” indicates maximum degradation ≥75%)”. In addition, in assay [2], the DC50 was more than 0.01 µM and the Dmax was more than 75%.

The values above are taken from US20260193264A1, “BENZOYPARAZINE PYRAZINES AND THEIR USES” (FOGHORN THERAPEUTICS INC., priority 2022, published 2026).
